Consider 12 compounds from US4276298A, “2-Aryl-1,2-benzisothiazolinone-1,1-dioxides and their use as selective protease inhibitors” (Merck & Co., Inc., priority 1979, dated 1981).

The target in one assay is T1, Trypsin (Bos taurus, UniProt P00760).
T1 construct: purchased Worthington TRL
T1 sequence (P00760 24-246): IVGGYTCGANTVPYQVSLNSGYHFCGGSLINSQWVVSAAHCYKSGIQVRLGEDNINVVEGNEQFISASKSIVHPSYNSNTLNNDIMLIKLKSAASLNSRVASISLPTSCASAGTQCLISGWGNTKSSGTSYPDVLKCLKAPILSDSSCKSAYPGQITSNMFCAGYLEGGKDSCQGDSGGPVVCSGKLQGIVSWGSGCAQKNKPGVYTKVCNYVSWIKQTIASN
The assay can be described thus: Trypsin inhibition (BAPA hydrolysis, 410 mμ). Type of assay: biochemical, bovine.

The target in assay [1] is T2, Porcine Pancreatic Elastase (Sus scrofa, UniProt P00772).
T2 construct: purchased Worthington
T2 sequence (P00772 27-266): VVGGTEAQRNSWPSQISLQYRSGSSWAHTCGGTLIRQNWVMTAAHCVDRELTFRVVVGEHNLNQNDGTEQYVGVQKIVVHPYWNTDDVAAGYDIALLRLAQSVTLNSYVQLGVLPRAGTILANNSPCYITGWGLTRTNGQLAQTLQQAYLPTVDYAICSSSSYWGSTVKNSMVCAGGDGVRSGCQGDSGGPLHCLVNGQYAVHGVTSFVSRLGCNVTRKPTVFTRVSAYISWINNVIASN
The assay can be described thus: Porcine pancreatic elastase inhibition (Boc-AAPAN hydrolysis, 410 mμ). It counts as biochemical. To be noted: 0.2 mM Boc-AAPAN, pH 7.5, purified PPE; read-out: ID50 Porcine Pancreatic Elastase (converted).
Method: PORCINE PANCREATIC ELASTASE:
Solution of purified porcine pancreatic elastase (PPE) (Worthington)
To 1.0 ml. of 0.2 mM Box-AAPAN in a cuvette, 0.01-0.1 ml. of DMSO with or without inhibitor was added. After mixing, a measurement was taken at 410 mμ to detect any spontaneous hydrolysis due to presence of test compound. 0.05 ml. of PPE extract was then added and the ΔOD/min at 410 m° was measured and recorded. A Gilford 240 or Beckman DB-G spectrophotometer was used.
The elastase activity in the crude PPE extract may vary from one preparation to another. A control of each new batch is run, and the volume added in the assay procedure is adjusted according to activity.

In the next assay the target is T3, Human PMN Elastase (Homo sapiens, UniProt P08246).
T3 construct: Crude extract of human polymorphonuclear leukocytes (PMN) containing elastase activity; from tissue; host or cells: human polymorphonuclear leukocytes (crude extract)
T3 sequence (P08246 30-267): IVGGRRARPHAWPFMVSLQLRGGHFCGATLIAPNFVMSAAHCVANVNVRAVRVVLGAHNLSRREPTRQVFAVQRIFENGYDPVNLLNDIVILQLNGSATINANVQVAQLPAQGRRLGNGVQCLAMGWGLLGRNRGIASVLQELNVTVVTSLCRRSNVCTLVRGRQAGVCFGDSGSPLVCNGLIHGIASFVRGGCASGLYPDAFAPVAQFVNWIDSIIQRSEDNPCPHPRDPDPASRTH
Kind of assay: Human PMN elastase inhibition (Boc-AAPAN hydrolysis, 410 mμ). Type of assay: biochemical. The following applies: 0.2 mM Boc-AAPAN, pH 7.5, crude human PMN extract; read-out: ID50 Human PMN Elastase (converted). As to the method: N-tris (hydroxymethyl) methyl-2-aminoethane sulfonic acid
0.2 mM N-t-Box-Alanyl-Alanyl-Prolyl-Alanine-p-nitroanilide=Boc-AAPAN
To prepare substrate, the solid (m.w. 550) was first dissolved in 10.0 ml. DMSO. Buffer at pH 7.5 was then added to a final volume of 100 ml.
Crude extract of human polymorphonuclear leukocytes (PMN) containing elastase activity.
(§1) Inhibitors to be tested dissolved in DMSO just before use.
To 1.0 ml. of 0.2 mM Box-AAPAN in a cuvette, 0.01-0.1 ml. of DMSO with or without inhibitor was added. After mixing, a measurement was taken at 410 mμ to detect any spontaneous hydrolysis due to presence of test compound. 0.05 ml. of PMN extract was then added and the ΔOD/min at 410 mμ was measured and recorded. A Gilford 240 or Beckman DB-G spectrophotomer was used.
Results were obtained as % inhibition produced by test compound as represented by the % decrease in ΔOD/min. of a control. The ID50 was then derived from the % inhibition curve.
The elastase activity in the crude PMN extract may vary from one preparation to another. A control of each new batch is run and the volume added in the assay procedure is adjusted according to activity.

A further assay addresses T4, Chymotrypsin (Bos taurus, UniProt P00766).
T4 construct: purchased Worthington
Kind of assay: Chymotrypsin inhibition (Ac-AAPPhN hydrolysis, 410 mμ). Type of assay: biochemical, bovine. As to the method: a-Chymotrypsin (Worthington, 3X crystallized, lyophilized) at 100 μg/ml in 0.001 M HCl (1 mg/ml by wt. diluted 1:10)
0.2 mM N-Acetyl-Alanyl-Alanyl-Prolyl-Phenylalanyl-p-nitroanilide=Ac-AAPPhN.To prepare substrate, the solid (M.W. 566) was first dissolved in 10.0 ml DMSO. Buffer at pH 7.5 was then added to a final volume of 100 ml.
as §1
To 1.0 ml of 0.2 mM Ac-AAPPhN in a cuvette, 0.01-0.05 ml of DMSO with or without inhibitor was added. After mixing, a measurement was taken at 410 mμ to detect any spontaneous hydrolysis due to the presence of test compound. 0.01 ml of α-chymotrypsin solution was then added and the ΔOD/min at […] was measured and recordeed. A Gilford 240 240 spectrophotometer was used.
Results were obtained as % inhibition produced by test compound as represented by the % decrease in ΔOD/min of a control. The ID50 was then derived from the % inhibition curve.

The next assay deals with papain. To be noted: cited from earlier work.
Assay [2] has as its system trypsin, chymotrypsin, plasmin, kallikrein, elastase, and thrombin. To be noted: glycoprotein in human serum; cited from earlier work.
A further assay deals with Papain induced emphysema. To be noted: hamster; cited from earlier work.
In a further assay the target is T5, Human PMN Cathepsin G (Homo sapiens, UniProt P08311).
T5 construct: Purified extract of human polymorphonuclear leukocytes (PMN) containing chymotrypsin-like activity; from tissue; host or cells: human polymorphonuclear leukocytes (purified extract)
T5 sequence (P08311 21-255): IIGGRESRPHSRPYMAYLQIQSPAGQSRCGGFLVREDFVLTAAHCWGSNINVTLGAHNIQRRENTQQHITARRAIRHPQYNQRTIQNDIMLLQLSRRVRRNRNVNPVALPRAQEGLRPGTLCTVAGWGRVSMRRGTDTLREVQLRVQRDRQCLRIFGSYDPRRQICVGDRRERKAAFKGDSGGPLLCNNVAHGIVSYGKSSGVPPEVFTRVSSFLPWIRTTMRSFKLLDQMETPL
Kind of assay: Human PMN cathepsin G inhibition (BTNP hydrolysis, 347.5 mμ). Type of assay: biochemical. To be noted: 0.2 mM BTNP, pH 6.5, purified human PMN extract; read-out: ID50 Human PMN Cathepsin G (converted).

Where [3] appears, read: 1.0 mM BAPA, pH 7.5, read-out: ID50 Trypsin (converted).
Setting [4] is: 0.2 mM Ac-AAPPhN, pH 7.5, α-chymotrypsin, read-out: ID50 Chymotrypsin (converted).

Where two headings read alike, the source gives them in different places.

Method for Human PMN Cathepsin G: 0.05 M PIPES buffer [piperazine-N,N'-bis(2-ethanesulfonic acid), mono-sodium salt, monohydrate], pH 6.5.
0.2 mM t-Box-L-Tyrosine-p-Nitrophenyl ester=BTNP
Purified extract of human polymorphonuclear leukocytes (PMN) containing chymotrypsin-like activity.
To 1.0 ml of 0.2 mM BTNP in a cuvette, 0.01-0.1 ml of DMSO with or without inhibitor was added. After mixing, a measurement was taken at 347.5 mμ to detect any spontaneous hydrolysis due to the presence of test compound. 0.01 ml of PMN extract was then added and the ΔOD/min at 347.5 mμ was measured and recorded. A Gilford 240 or Beckman DB-G spectrophotometer was used.
To prepare substrate, 8.0 mg of solid (m.w. 402) was first dissolved in 10.0 ml DMSO. Buffer at pH 6.5 was then added to a final volume of 100 ml. Final DMSO concentration was 10%. Substrate prepared in this manner is stable for 3-4 hours at room temperature.
All activites were tested for reactivity with nitrophenol. The test is invalid if the test compound reacts with nitrophenol.

As for `O=C1c2ccccc2S(=O)(=O)N1c1ccc([N+](=O)[O-])cc1[N+](=O)[O-]`, the IC50 at Trypsin was 143 µM; in assay [1], 143 µM; at Human PMN Elastase, 2860 nM; at Chymotrypsin it was 1430 nM.
Regarding `CCC(CC)C(=O)N1C(=O)c2ccccc2S1(=O)=O` [reference compound], the IC50 is 3.55 µM on Trypsin (setting [3]), 1.07 µM in assay [1], 355 nM on Human PMN Elastase and 142 nM at Chymotrypsin (setting [4]).
In the same order, the values of `O=C(c1ccco1)N1C(=O)c2ccccc2S1(=O)=O` [reference compound] are 1.8 µM, 0.721 µM, 361 nM and 72.1 nM.
For the compound `N#Cc1ccc(N2C(=O)c3ccccc3S2(=O)=O)nc1`, the results for the IC50 on Human PMN Elastase and on Chymotrypsin (setting [4]) were 10500 nM and 59600 nM, respectively.
“α1 -Antitrypsin: a glycoprotein in human serum”: the inhibition of papain entry in the assay on papain is reported as “not inhibited”. In addition, in assay [2], the inhibitory spectrum entry is “wide inhibitory spectrum”. Also, the “inhibition of papain induced emphysema” value in the assay with Papain induced emphysema was “inhibited”.
Turning to `O=C(c1cccs1)N1C(=O)c2ccccc2S1(=O)=O` [reference compound], the IC50 is 0.0682 µM on Trypsin (setting [3]), 0.682 µM in assay [1], 341 nM at Human PMN Elastase and 682 nM on Chymotrypsin.
With `O=C1c2ccccc2S(=O)(=O)N1c1ccc([N+](=O)[O-])cc1` [reference compound], the IC50 against Trypsin was 329 µM; in assay [1], 329 µM; on Human PMN Elastase, 164000 nM; against Chymotrypsin, 329000 nM.
For `O=C1c2ccccc2S(=O)(=O)N1c1c(F)c(F)c(F)c(F)c1F`, the IC50 at Trypsin is 143 µM; in assay [1] it was 143 µM; on Human PMN Elastase, 2860 nM; against Chymotrypsin it was 143000 nM.
Take `C=CC(=O)N1C(=O)c2ccccc2S1(=O)=O` [reference compound]: the IC50 on Trypsin (setting [3]) was 1.69 µM; in assay [1] it was 0.843 µM; on Human PMN Elastase, 422 nM; on Human PMN Cathepsin G, 4.22 µM; on Chymotrypsin (setting [4]), 295 nM.
For the compound `O=C1c2ccccc2S(=O)(=O)N1c1ncccc1[N+](=O)[O-]`, the IC50 at Trypsin (setting [3]) is 65.5 µM; in assay [1] it was 65.5 µM; at Human PMN Elastase, 1640 nM; on Chymotrypsin (setting [4]) it was 655 nM.
For `N#Cc1cc([N+](=O)[O-])ccc1N1C(=O)c2ccccc2S1(=O)=O`, the IC50 is 60.7 µM against Trypsin; 60.7 µM in assay [1]; 3040 nM at Human PMN Elastase; 45.6 µM on Human PMN Cathepsin G; 607 nM on Chymotrypsin (setting [4]).
`N#Cc1ccc(N2C(=O)c3ccccc3S2(=O)=O)c(C#N)c1`: the IC50 was 162 µM at Trypsin (setting [3]); 162 µM in assay [1]; 4850 nM on Human PMN Elastase; 162 µM on Human PMN Cathepsin G; 3230 nM on Chymotrypsin (setting [4]).
